# Results reported in PMC7210504 (Biochemistry, 2017).
# Assays:
# [1] = target: T1, ChuY (Escherichia coli, UniProt Q8X5N4); assay: biochemical
# [2] = target: ChuY from Escherichia coli O157:H7 (anaerobilin reductase) (Escherichia coli O157:H7); assay: AUC
# [3] = target: T1, ChuY; conditions: read-out: steady state parameters^a / Km ^app; 30 μM NADPH; anaerobic, pH 8.1, 25 °C
# [4] = target: T1, ChuY; conditions: 30 μM NADPH; anaerobic, pH 8.1, 25 °C; substrate inhibition constant (kinetic)
molecule,measurement,setting,value
NC(=O)C1=CN([C@@H]2O[C@H](COP(=O)(O)OP(=O)(O)OC[C@H]3O[C@@H](n4cnc5c(N)ncnc54)[C@H](OP(=O)(O)O)[C@@H]3O)[C@@H](O)[C@H]2O)C=CC1 [NADPH],Kd,[1],2700 ± 200 nM
ChuY from Escherichia coli O157:H7 (anaerobilin reductase) (enzyme),percent of the c(s) distribution (species consistent with a dimer),[2],90%
same,stoichiometry N,[2],2
deuteroanaerobilin [DAB],Km,[3],1.6 ± 0.3 µM
same,equilibrium binding^b / Ki ^app,[4],14000 ± 2000 nM
